Reference: ChEMBL document CHEMBL5154730, “A covalent strategy to target intrinsically disordered proteins: Discovery of novel tau aggregation inhibitors” (Eur J Med Chem, 2022)
Active and inactive are the calls of the source. The calls are words filed in the database; no cut-off is given here.

Legend:
[1] = target: Microtubule-associated protein tau (Homo sapiens) (UniProt P10636); test: Inhibition of tau K18 domain (unknown origin) assessed as inhibition of heparin-induced aggregation by measuring protein aggregation rate at 10 uM by thioflavin-T fluorescence assay relative to control; set-up: scale not given: the % may be the effect or the level left
Sequence of Microtubule-associated protein tau (Homo sapiens) (P10636 whole entry, the tested form may be a part): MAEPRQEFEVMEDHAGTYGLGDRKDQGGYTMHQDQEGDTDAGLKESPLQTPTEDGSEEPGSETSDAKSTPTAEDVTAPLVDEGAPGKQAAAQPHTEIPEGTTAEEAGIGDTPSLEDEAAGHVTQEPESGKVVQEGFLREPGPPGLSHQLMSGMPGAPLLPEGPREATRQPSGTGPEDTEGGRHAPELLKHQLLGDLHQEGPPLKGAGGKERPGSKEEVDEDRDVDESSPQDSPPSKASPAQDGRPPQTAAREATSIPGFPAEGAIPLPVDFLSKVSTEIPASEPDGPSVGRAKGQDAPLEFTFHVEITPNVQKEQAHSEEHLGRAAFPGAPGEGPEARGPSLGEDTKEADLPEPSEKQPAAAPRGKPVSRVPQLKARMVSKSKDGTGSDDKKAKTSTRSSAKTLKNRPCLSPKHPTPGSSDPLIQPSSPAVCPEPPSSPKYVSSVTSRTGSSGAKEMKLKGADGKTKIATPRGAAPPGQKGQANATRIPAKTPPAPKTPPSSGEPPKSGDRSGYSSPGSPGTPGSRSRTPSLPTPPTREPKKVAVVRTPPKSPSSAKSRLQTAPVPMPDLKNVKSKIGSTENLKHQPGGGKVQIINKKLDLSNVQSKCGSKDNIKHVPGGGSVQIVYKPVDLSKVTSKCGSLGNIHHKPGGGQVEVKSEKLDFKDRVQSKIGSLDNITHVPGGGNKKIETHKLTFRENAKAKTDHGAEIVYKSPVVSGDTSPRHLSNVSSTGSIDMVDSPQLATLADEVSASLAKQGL

[2] = target: Microtubule-associated protein tau (Homo sapiens) (UniProt P10636); test: Binding affinity to tau K18 domain (unknown origin) assessed as cysteine labelling efficiency by measuring free thiol ratio at 200 uM incubated for 24 hrs by Ellmans method relative to control
[3] = target: Microtubule-associated protein tau (Homo sapiens) (UniProt P10636); test: Inhibition of tau K18 domain (unknown origin) assessed as inhibition of heparin-induced aggregation by measuring protein aggregation rate at 1000 uM by thioflavin-T fluorescence assay relative to control; set-up: scale not given: the % may be the effect or the level left
[4] = target: Microtubule-associated protein tau (Homo sapiens) (UniProt P10636); test: Covalent binding affinity to tau K18 domain monomer (unknown origin) assessed as labelling at Cys291 residue incubated for 24 hrs and measured following trypsin digestion by LC-MS/MS analysis
[5] = target: Microtubule-associated protein tau (Homo sapiens) (UniProt P10636); test: Inhibition of tau K18 domain (unknown origin) assessed as inhibition of heparin-induced aggregation by measuring protein aggregation rate at 500 uM by thioflavin-T fluorescence assay relative to control; set-up: scale not given: the % may be the effect or the level left
[6] = target: Microtubule-associated protein tau (Homo sapiens) (UniProt P10636); test: Covalent binding affinity to tau K18 domain monomer (unknown origin) assessed as labelling at Cys322 residue incubated for 24 hrs and measured following trypsin digestion by LC-MS/MS analysis
[7] = target: Microtubule-associated protein tau (Homo sapiens) (UniProt P10636); test: Inhibition of tau K18 domain (unknown origin) assessed as inhibition of heparin-induced aggregation by measuring protein aggregation rate at 250 uM by thioflavin-T fluorescence assay relative to control; set-up: scale not given: the % may be the effect or the level left
[8] = target: Microtubule-associated protein tau (Homo sapiens) (UniProt P10636); test: Inhibition of tau K18 domain (unknown origin) assessed as inhibition of heparin-induced aggregation by measuring protein aggregation rate at 50 uM by thioflavin-T fluorescence assay relative to control; set-up: scale not given: the % may be the effect or the level left
[9] = target: Microtubule-associated protein tau (Homo sapiens) (UniProt P10636); test: Binding affinity to tau K18 domain (unknown origin) assessed as cysteine labelling at 250 uM incubated for 18 hrs by 15N-HSQC NMR spectroscopy
[10] = target: Microtubule-associated protein tau (Homo sapiens) (UniProt P10636); test: Inhibition of tau K18 domain (unknown origin) assessed as inhibition of heparin-induced aggregation by measuring protein aggregation rate at 100 uM by thioflavin-T fluorescence assay relative to control; set-up: scale not given: the % may be the effect or the level left
Homo sapiens = species: Homo sapiens; test: Inhibition of hexahistidine-tagged tau K18 domain C291S/C322S mutant (unknown origin) expressed in Escherichia coli BL21 (DE3) assessed as inhibition of heparin-induced aggregation by measuring protein aggregation rate at 10 uM by thioflavin-T fluorescence assay relative to control; set-up: scale not given: the % may be the effect or the level left
[11] = target: Microtubule-associated protein tau (Homo sapiens) (UniProt P10636); test: Inhibition of tau K18 domain (unknown origin) assessed as inhibition of heparin-induced aggregation by measuring increase in brightness by transmission electron microscopy
[12] = target: Microtubule-associated protein tau (Homo sapiens) (UniProt P10636); test: Inhibition of tau K18 domain (unknown origin) assessed as inhibition of heparin-induced aggregation by measuring reduction in intensity at 215 nm with random coil conformation by CD spectrometry

## C=CS(=O)(=O)Cc1ccc(C(=O)c2ccccc2)cc1
[1]
  Activity: 97.3%

## C=CS(=O)(=O)Cc1cccc2cccnc12
[1]
  Activity: 102%

## C=CS(=O)(=O)Cc1cc(C(F)(F)F)cc(C(F)(F)F)c1
[2]
  Activity: 66.3%
[1]
  Activity: 39.8%
[3]
  Activity: 39.8%
[4]
  Activity: Active
[5]
  Activity: 43.1%
[6]
  Activity: Active
[7]
  Activity: 62.9%
[8]
  Activity: 94.4%
[9]
  Activity: Active
[10]
  Activity: 75.3%
Homo sapiens
  Activity: 86.7%

## C=CS(=O)(=O)NCc1cc(C(F)(F)F)cc(C(F)(F)F)c1
[1]
  Activity: 96.9%

## C=CS(=O)(=O)NCCNC(=O)O[C@H]1CC[C@@]2(C)C(=CC[C@H]3[C@@H]4CC[C@H]([C@H](C)CCCC(C)C)[C@@]4(C)CC[C@@H]32)C1
[2]
  Activity: 56.7%
[1]
  Activity: 39.7%
[11]
  inhibition: Active
Homo sapiens
  Activity: 100%

## C=CS(=O)(=O)Cc1ccc(-c2ccc(/C=C3/SC(=S)N(CCC(=O)OCC)C3=O)o2)cc1
[2]
  Activity: 44.7%
[1]
  Activity: 29.2%
[3]
  Activity: 29.2%
[12]
  inhibition: Active
[5]
  Activity: 40.1%
[7]
  Activity: 50.8%
[8]
  Activity: 75.4%
[10]
  Activity: 60.3%
Homo sapiens
  Activity: 83.4%

## C=CS(=O)(=O)Cc1c2ccccc2cc2ccccc12
[2]
  Activity: 34.4%
[1]
  Activity: 21.3%
[3]
  Activity: 21.3%
[4]
  Activity: Active
[5]
  Activity: 43.9%
[6]
  Activity: Active
[7]
  Activity: 54.1%
[8]
  Activity: 78.2%
[10]
  Activity: 72%
Homo sapiens
  Activity: 69.4%

## C=CS(=O)(=O)Nc1ccc(C(=O)NCCCCCC(=O)N[C@@H](CCC(=O)O)C(=O)N[C@@H](C)C(=O)N[C@@H](C)C(=O)N[C@@H](CCC(=O)O)C(=O)N[C@@H](C)C(=O)N[C@@H](CCCCN)C(=O)N[C@@H](C)C(=O)N[C@@H](C)C(=O)NC(CCCCn2cc(CNC(=O)[C@H](Cc3c[nH]c4ccccc34)NC3C(=O)c4ccccc4C(=O)C3Cl)nn2)C(=O)O)cc1 (stereo partly drawn)
[2]
  Activity: 39.7%
[1]
  Activity: 15.7%
[4]
  Activity: Active
[11]
  inhibition: Active
Homo sapiens
  Activity: 57.9%

## C=CS(=O)(=O)Cc1ccc2ccccc2c1
[1]
  Activity: 111%

## C=CS(=O)(=O)c1cc(C(F)(F)F)cc(C(F)(F)F)c1
[1]
  Activity: 107%

## C=CS(=O)(=O)c1ccccc1
[1]
  Activity: 97.7%

## C=CS(N)(=O)=O
[1]
  Activity: 110%

## H-DVWMINKKRK-OH
[1]
  Activity: 38.1%
Homo sapiens
  Activity: 29.4%
